{
  "source": "patent US12403326B2",
  "about": "“System for corneal cross-linking and correcting vision by using LED contact lens and eye dye” (PHI BIOMED INC., priority 2019, dated 2025)",
  "key": {"bovine cornea [1]": {"system": "bovine cornea", "assay": "Corneal permeability by two-photon image analysis", "type": "in vitro ADME", "conditions": "dropped on bovine cornea at 5-minute intervals for 30 minutes; two-photon imaging", "protocol": "The hyaluronic acid-Rose Bengal conjugate synthesized in Example 1 was dropped on the bovine cornea at 5-minute intervals for 30 minutes. As a comparative group, a pure Rose Bengal solution was dropped in the same manner as described above.\nAfterward, two-photon image analysis was performed by extracting the cornea from the bovine cornea."}, "bovine cornea [2]": {"system": "bovine cornea", "assay": "Corneal bonding of wounded cornea, intraocular pressure by tonometer after 532-nm laser", "conditions": "wounded bovine eye; dropped at 5-minute intervals for 30 minutes, 532-nm laser for 30 minutes", "protocol": "After approximately […] wound was made in the bovine cornea, the pressure in the bovine eye was measured using a tonometer. Afterward, each of a hyaluronic acid-Rose Bengal conjugate solution and a Rose Bengal solution was dropped on the wound-induced region at 5-minute intervals for 30 minutes, and a 532-nm laser was irradiated for 30 minutes to induce crosslinking between corneal collagen to bond. Likewise, an intraocular pressure was measured after bonding by a laser using a tonometer.\nBy comparing the intraocular pressure before and after bonding, it was confirmed whether bonding was formed."}, "bovine cornea [3]": {"system": "bovine cornea", "assay": "Corneal thickness from H&E stained corneal tissue after collagen crosslinking", "conditions": "decreased from 1000 μm; dropped for 30 minutes, 532-nm laser for 30 minutes; H&E images", "protocol": "(§1) Hyaluronic acid or a hyaluronic acid-Rose Bengal conjugate were dropped on the bovine cornea at 5-minute intervals for 30 minutes, and a 532-nm laser was irradiated for 30 minutes to induce crosslinking between corneal collagen. Afterward, corneal tissue was fixed with formalin, and stained with H&E, followed by observation under a microscope."}, "bovine cornea [4]": {"system": "bovine cornea", "assay": "Corneal strength, Young's modulus using Instron equipment", "conditions": "bovine cornea after collagen crosslinking; untreated Control 1.76", "protocol": "as §1\nIn addition, the bovine cornea in which collagen crosslinking was induced was extracted, and then the Young's modulus of the cornea was measured using Instron equipment to analyze the strength of the cornea."}},
  "data": [
    {"smiles": "O=C([O-])c1c(Cl)c(Cl)c(Cl)c(Cl)c1-c1c2cc(I)c(=O)c(I)c-2oc2c(I)c([O-])c(I)cc12.[Na+].[Na+]", "note": "[Rose Bengal]", "values": [
      {"measurement": "depth up to which fluorescence was shown in the cornea (corneal permeability)", "setting": "bovine cornea [1]", "value": 400, "unit": "μm"},
      {"measurement": "increase in maximum intraocular pressure compared to not treated", "setting": "bovine cornea [2]", "value": "approximately two"},
      {"measurement": "corneal thickness after treatment", "setting": "bovine cornea [3]", "value": 750, "unit": "μm"},
      {"measurement": "Young's modulus of the cornea", "setting": "bovine cornea [4]", "value": 2.75}
    ]}
  ]
}
